The source of these data is patent US20240148821A1, “PHARMACEUTICAL USE OF CYCLIC PEPTIDE COMPOUND” (CHUGAI SEIYAKU KABUSHIKI KAISHA, priority 2021, published 2024).

SMILES strings stand for the structures. Numbered stars: 1 amine (or outer) side, 2 acyl side, 3 side chain; on linkers, the order of the positions; unused ones are H or OH. Bridge positions count the residues as written; N and C are the ends. Square brackets hold non-standard residues; d marks the D form. Peptide text beside a SMILES is read from it. * marks the point of attachment. hPhe(3,5-F2-4-CF3) = N[C@@H](CCc1cc(F)c(C(F)(F)F)c(F)c1)C(=O)O; hPhe(3-Cl-4-CF3) = N[C@@H](CCc1ccc(C(F)(F)F)c(Cl)c1)C(=O)O; NMePhe(4-CF3) = CN[C@@H](Cc1ccc(C(F)(F)F)cc1)C(=O)O; X52 = CN([C@@H](Cc1ccccc1OC(F)(F)F)C(=O)[*:2])[*:1]; NEtPhe(4-Cl) = CCN[C@@H](Cc1ccc(Cl)cc1)C(=O)O; NMePhe(4-Cl) = CN[C@@H](Cc1ccc(Cl)cc1)C(=O)O; X128 = O=C([C@H](Cc1cccc(F)c1F)N[*:1])[*:2]; NMePhe(2-Me) = CN[C@@H](Cc1ccccc1C)C(=O)O; NMeGly(cPent) = CN[C@H](C(=O)O)C1CCCC1; Phe(3-I) = N[C@@H](Cc1cccc(I)c1)C(=O)O; NMeY = CN[C@@H](Cc1ccc(O)cc1)C(=O)O; NMeCha = CN[C@@H](CC1CCCCC1)C(=O)O; NMeAhp(2) = CCCCC[C@H](NC)C(=O)O; NMeChg = CN[C@H](C(=O)O)C1CCCCC1; NMeI = CC[C@H](C)[C@H](NC)C(=O)O; N(CH2CH2)2CF2 = FC1(F)CCN(*)CC1; Cha = N[C@@H](CC1CCCCC1)C(=O)O; NMeD = CN[C@@H](CC(=O)O)C(=O)O; NMeL = CN[C@@H](CC(C)C)C(=O)O; NMeV = CN[C@H](C(=O)O)C(C)C; d(β3hA) = C[C@@H](N)CC(=O)O; NMeAbu = CC[C@H](NC)C(=O)O; dNMeS = CN[C@H](CO)C(=O)O; NMeA = CN[C@@H](C)C(=O)O; NMeAib = CNC(C)(C)C(=O)O; Nle = CCCC[C@H](N)C(=O)O; Piperidide = C1CCN(*)CC1; Pyrrolidide = C1CCN(*)C1; dNMeA = CN[C@H](C)C(=O)O; Ac5c = NC1(C(=O)O)CCCC1; Aze = O=C(O)[C@@H]1CCN1; Abu = CC[C@H](N)C(=O)O; Aib = CC(C)(N)C(=O)O; Isopentyl = CC(C)CC*; Sar = CNCC(=O)O Bounds are passed on as bounds.

The test system of this test is Human pancreatic cancer cell line AsPC-1 (G12D mutation Kras). As to the kind of experiment: AsPC-1 cell growth inhibition (AsPC-1 CGI). It is filed as cell-based. As to conditions: read-out: AsPC-1 cell growth inhibition, 50% growth inhibitory concentration (IC50 value); 96 hours, CellTiter-Glo, values classified in ranges. (In general: In ATP-based viability assays light output follows the ATP content of the culture.)
Protocol: Test compounds were serially dilated with dimethyl sulfoxide, and 200 nL was then dispensed to a U-bottom 96-well plate using Labcyte Echo. […] The cell suspension was dispensed to a. plate containing a test compound at 100 μL per well and incubated at 37° C. in a 5% carbon dioxide gas incubator. 96 hours later, 80 μL of CellTiter-Glo (Promega) was added to each well and fluorescence was measured.
As to `CC[C@H](C)[C@@H]1NC(=O)[C@H](C)N(C)C(=O)C[C@@H](C(=O)N2CCCCC2)N(C)C(=O)[C@H](C(C)C)N(C)C(=O)C2(CCCC2)NC(=O)[C@@H]2CCCN2C(=O)[C@H](CCc2ccc(C(F)(F)F)c(Cl)c2)NC(=O)[C@@H](C)N(C)C(=O)[C@H](CC2CCCCC2)N(C)C(=O)[C@@H]2CCN2C(=O)[C@H](C)N(C)C1=O` [Compound 1103] ([NMeA]I[NMeA][Aze][NMeCha][dNMeA][hPhe(3-Cl-4-CF3)]P[Ac5c][NMeV][NMeD]-Piperidide; lactam N-11), the IC50 is over 500 nM.
In the case of `CC[C@H](C)[C@@H]1NC(=O)[C@H](CC(C)C)N(C)C(=O)C[C@@H](C(=O)N(C)C)N(C)C(=O)[C@H]([C@@H](C)CC)N(C)C(=O)C2(CCCC2)NC(=O)[C@@H]2CCCN2C(=O)[C@H](CCc2ccc(C(F)(F)F)c(Cl)c2)NC(=O)CN(C)C(=O)[C@H](CC2CCCCC2)N(C)C(=O)CN(C)C(=O)CN(C)C1=O` [Compound 1865] ([NMeL]I[Sar][Sar][NMeCha][Sar][hPhe(3-Cl-4-CF3)]P[Ac5c][NMeI][NMeD]-NMe2; lactam N-11), the IC50 was at most 20 nM.
In the case of `CCCCC[C@H]1C(=O)N(C)[C@H](C(=O)N2CCCCC2)CC(=O)N(C)[C@@H](CC(C)C)C(=O)N[C@@H]([C@@H](C)CC)C(=O)N(C)CC(=O)N(C)CC(=O)N(C)[C@@H](CC2CCCCC2)C(=O)N(C)CC(=O)N[C@@H](CCc2ccc(C(F)(F)F)c(Cl)c2)C(=O)N2CCC[C@H]2C(=O)NC2(CCCC2)C(=O)N1C` [Compound 1719] ([NMeL]I[Sar][Sar][NMeCha][Sar][hPhe(3-Cl-4-CF3)]P[Ac5c][NMeAhp(2)][NMeD]-Piperidide; lactam N-11) it was over 500 nM; in that of `CCCC[C@@H]1NC(=O)[C@H](Cc2cccc(F)c2F)NC(=O)CN(C)C(=O)[C@H](Cc2ccc(OC)cc2)N(C)C(=O)[C@@H]2CCN2C(=O)[C@H](C)N(C)C(=O)[C@H]([C@@H](C)CC)NC(=O)[C@H](CC)N(C)C(=O)C[C@@H](C(=O)N2CCCCC2)N(C)C(=O)[C@H](CC(C)C)NC(=O)C(C)(C)N(C)C1=O` [Compound 1256] ([NMeAbu]I[NMeA][Aze][NMeY](Me)[Sar][X128][Nle][NMeAib]L[NMeD]-Piperidide; lactam N-11), over 500 nM.
The result for `CC[C@H](C)[C@@H]1NC(=O)[C@H](CC(C)C)N(C)C(=O)C[C@@H](C(=O)N2CCCC2)N(C)C(=O)[C@H]([C@@H](C)CC)N(C)C(=O)C2(CCCC2)NC(=O)[C@@H]2CCCN2C(=O)[C@H](CCc2cc(F)c(C(F)(F)F)c(F)c2)NC(=O)CN(C)C(=O)[C@H](Cc2ccc(C(F)(F)F)cc2)N(C)C(=O)[C@@H]2CCN2C(=O)[C@H](C)N(C)C1=O` [Compound 1343] ([NMeL]I[NMeA][Aze][NMePhe(4-CF3)][Sar][hPhe(3,5-F2-4-CF3)]P[Ac5c][NMeI][NMeD]-Pyrrolidide; lactam N-11) reads at most 20 nM; that for `CC[C@H](C)[C@@H]1NC(=O)[C@H](CC(C)C)N(C)C(=O)C[C@@H](C)NC(=O)[C@H](C(C)C)N(C)C(=O)C2(CCCC2)NC(=O)[C@@H]2CCCN2C(=O)[C@H](CCc2ccc(C(F)(F)F)c(Cl)c2)NC(=O)CN(C)C(=O)[C@H](Cc2ccccc2OC(F)(F)F)N(C)C(=O)CN(C)C(=O)CN(C)C1=O` [Compound 1635] (cyclo([Ac5c][NMeV][d(β3hA)][NMeL]I[Sar][Sar][X52][Sar][hPhe(3-Cl-4-CF3)]P)), over 500 nM.
The result for `CCCC[C@@H]1NC(=O)[C@H](Cc2cccc(I)c2)NC(=O)CN(C)C(=O)[C@H](Cc2ccc(Cl)cc2)N(CC)C(=O)CN(C)C(=O)CN(C)C(=O)[C@H]([C@@H](C)CC)NC(=O)[C@H](CC(C)C)N(C)C(=O)C[C@@H](C(=O)N2CCCCC2)N(C)C(=O)[C@H](CC(C)C)NC(=O)C(C)(C)N(C)C1=O` [Compound 423] ([NMeL]I[Sar][Sar][NEtPhe(4-Cl)][Sar][Phe(3-I)][Nle][NMeAib]L[NMeD]-Piperidide; lactam N-11) reads over 500 nM; that for `CC[C@H](C)[C@@H]1NC(=O)[C@H](CC(C)C)N(C)C(=O)C[C@@H](C(=O)N2CCCCC2)N(C)C(=O)[C@H](C2CCCCC2)N(C)C(=O)C2(CCCC2)NC(=O)[C@H](CC(=O)O)N(C)C(=O)[C@H](CCc2ccc(C(F)(F)F)c(Cl)c2)NC(=O)CN(C)C(=O)[C@H](CC2CCCCC2)N(C)C(=O)CN(C)C(=O)CN(C)C1=O` [Compound 688] ([NMeL]I[Sar][Sar][NMeCha][Sar][hPhe(3-Cl-4-CF3)][NMeD][Ac5c][NMeChg][NMeD]-Piperidide; lactam N-11), over 500 nM; that for `CC(C)C[C@H]1C(=O)N[C@@H](CC2CCCCC2)C(=O)N(C)CC(=O)N(C)CC(=O)N(C)[C@@H](CC2CCCCC2)C(=O)N(C)CC(=O)N[C@@H](CCc2ccc(C(F)(F)F)c(Cl)c2)C(=O)N2CCC[C@H]2C(=O)NC2(CCCC2)C(=O)N(C)[C@@H](C(C)C)C(=O)N(C)[C@H](C(=O)N2CCCCC2)CC(=O)N1C` [Compound 986] ([NMeL][Cha][Sar][Sar][NMeCha][Sar][hPhe(3-Cl-4-CF3)]P[Ac5c][NMeV][NMeD]-Piperidide; lactam N-11), over 500 nM.
Regarding `CC[C@@H]1NC(=O)[C@H]([C@@H](C)CC)NC(=O)[C@H](CC(C)C)N(C)C(=O)C[C@@H](C)NC(=O)[C@H](C(C)C)N(C)C(=O)C2(CCCC2)NC(=O)[C@@H]2CCCN2C(=O)[C@H](CCc2ccc(C(F)(F)F)c(Cl)c2)NC(=O)CN(C)C(=O)[C@H](CC2CCCCC2)N(C)C(=O)CN(C)C1=O` [Compound 1459] (cyclo([Abu][Sar][NMeCha][Sar][hPhe(3-Cl-4-CF3)]P[Ac5c][NMeV][d(β3hA)][NMeL]I)), the IC50 was over 500 nM.
Take `CC[C@H](C)[C@@H]1NC(=O)[C@H](CC(C)C)N(C)C(=O)C[C@@H](C(=O)N2CCCCC2)N(C)C(=O)[C@H](C2CCCC2)N(C)C(=O)C2(CCCC2)NC(=O)[C@@H](COCCC(C)C)N(C)C(=O)[C@H](CCc2ccc(C(F)(F)F)c(Cl)c2)NC(=O)CN(C)C(=O)[C@H](CC2CCCCC2)N(C)C(=O)[C@@H]2CCN2C(=O)[C@H](C)N(C)C1=O` [Compound 1443] ([NMeL]I[NMeA][Aze][NMeCha][Sar][hPhe(3-Cl-4-CF3)][dNMeS](Isopentyl)[Ac5c][NMeGly(cPent)][NMeD]-Piperidide; lactam N-11): the IC50 is over 500 nM.
For `CC[C@H](C)[C@@H]1NC(=O)[C@H](CC(C)C)N(C)C(=O)C[C@@H](C(=O)N2CCCCC2)N(C)C(=O)[C@H](C(C)C)N(C)C(=O)C(C)(C)NC(=O)[C@H](CC(=O)N2CCC(F)(F)CC2)N(C)C(=O)[C@H](CCc2ccc(C(F)(F)F)c(Cl)c2)NC(=O)CN(C)C(=O)[C@H](CC2CCCCC2)N(C)C(=O)CN(C)C(=O)CN(C)C1=O` [Compound 463] ([NMeL]I[Sar][Sar][NMeCha][Sar][hPhe(3-Cl-4-CF3)][NMeD](N(CH2CH2)2CF2)[Aib][NMeV][NMeD]-Piperidide; lactam N-11), the IC50 was over 500 nM.
With `CCCC[C@@H]1NC(=O)[C@H](Cc2cccc(I)c2)NC(=O)CN(C)C(=O)[C@H](Cc2ccc(Cl)cc2)N(C)C(=O)CN(C)C(=O)CN(C)C(=O)[C@H]([C@@H](C)CC)NC(=O)[C@H](CC(C)C)N(C)C(=O)C[C@@H](C(=O)N2CCCCC2)N(C)C(=O)[C@H](CC(C)C)NC(=O)[C@H](Cc2ccccc2C)N(C)C1=O` [Compound 696] ([NMeL]I[Sar][Sar][NMePhe(4-Cl)][Sar][Phe(3-I)][Nle][NMePhe(2-Me)]L[NMeD]-Piperidide; lactam N-11), the IC50 is over 500 nM.
